Assay results taken from patent US6113907A, “Pharmaceutical grade St. John's Wort” (priority 1997, dated 2000).
“And” between values parts separate entries of the source, which are not always exact repeats. Equal values may be shown once. Where a name gives a salt, the structure may show the parent alone. Read-outs that look alike come from different tables or passages of the source.

Columns and labels:
[1] = system: human immunodeficiency virus type 1 (HIV-1); conditions: cited from earlier work
[2] = system: equine infectious anemia virus; conditions: cited from earlier work
murine cytomegalovirus = conditions: cited from earlier work
herpes simplex = conditions: cited from earlier work
Sindbis virus = conditions: cited from earlier work
stability = type: physicochemical; conditions: our data
Text: Some botanicals, such as St. John's Wort, are both temperature and light sensitive. For this type of botanical the material should be dry packed with a refrigerant or shipped under refrigeration and protected from light and air. […] Stability (in absence of air) was increased to six months in a preparation extracted with ethanol.
Phloroglucinola include hyperforin (prenylated derivative of phloroglucinol), adhyperforin (similar to the bitter principle of hops, adhumulone).

protein kinase C = conditions: cited from earlier work
GABAA receptor = conditions: read-out: Ki(nM) GABAA reference compounds; cited from earlier work
Monoamine Oxidase A = conditions: read-out: Inhibition of Monoamine Oxidase A Activity IC50; cited from earlier work
serotonin transporter [3] = target: T1, serotonin transporter (Rattus norvegicus, UniProt P31652); experiment: serotonin transporter assay, [125I]-RTI-121, rat cerebral cortical membranes; type: binding
T1 construct: Cerebral cortical membranes derived from male Wistar rats; from tissue; host or cells: cerebral cortical membranes of male Wistar rats
T1 sequence (P31652 whole entry): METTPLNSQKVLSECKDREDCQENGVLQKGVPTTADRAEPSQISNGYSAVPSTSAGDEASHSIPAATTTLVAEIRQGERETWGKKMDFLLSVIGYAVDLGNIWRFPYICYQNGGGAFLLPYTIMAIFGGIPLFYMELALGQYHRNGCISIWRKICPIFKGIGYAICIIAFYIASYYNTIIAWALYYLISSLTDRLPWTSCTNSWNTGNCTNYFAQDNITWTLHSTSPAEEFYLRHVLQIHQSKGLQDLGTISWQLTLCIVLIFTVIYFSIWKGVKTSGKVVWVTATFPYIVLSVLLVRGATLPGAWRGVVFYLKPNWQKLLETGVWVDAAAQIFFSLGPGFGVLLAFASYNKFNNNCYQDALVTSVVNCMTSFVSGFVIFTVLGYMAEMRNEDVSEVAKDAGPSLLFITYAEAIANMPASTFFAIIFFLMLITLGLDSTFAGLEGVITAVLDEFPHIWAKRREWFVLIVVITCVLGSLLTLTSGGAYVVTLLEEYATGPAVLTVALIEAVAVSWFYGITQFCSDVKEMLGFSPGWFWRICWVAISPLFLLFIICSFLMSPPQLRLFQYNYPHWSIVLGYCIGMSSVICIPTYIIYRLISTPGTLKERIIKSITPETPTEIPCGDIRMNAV

[4] = system: muscarinic receptor for the central nervous system; experiment: muscarinic receptor for the central nervous system (M1 Central), [3H] QNB, rat cortical membranes; type: binding; conditions: 10^-4; 100 µM
Procedure: Fourteen additional bioassays were preformed on either extracts, fractions or reference compounds for this botanical. To measure inhibition of [^3 H] PK11195 to the benzodiazepine receptor (BDZ) a partially purified receptor preparation was made from rat kidney membranes. The final radioactive ligand concentration was 1 nM and non-specific binding was measured using 200 nM cold PK11195. The substances, receptor and ligand were reacted in 50 mM Tris-HCL (pH 7.7) at 0-4° C. for 60 minutes. The reaction was terminated by rapid filtration of the samples through glass fiber filters. […] The inhibition of [^3 H] pinrenzepine to the muscarinic M1 receptor (M1) by the substances was measured using a partially purified receptor from bovine striatal membranes. The final hot ligand concentration was 1 nM and non-specific binding was determined in the presence of 100 nM atropine. […] The reactions were terminated by rapid vacuum filtration of the reaction mixture through glass fiber filters. […] To assay for biological activity for the muscarinic receptor for the central nervous system, receptor was partially purified from rat cortical membranes. […] Non-specific binding was determined in the presence of 100 nM atropine. […] Non-specific binding was determined using 1 mM NMDA. […] Non-specific binding was determined using 100 μM AMPA.

adenosine receptor = adenosine receptor non-selective (ADNS), [3H] NECA, bovine striatal membranes; type: binding; conditions: for ADNS: 10^-4, 60 min, 100 µM
Procedure: To determine the inhibitory activity of the substances for the dopamine receptor (dp) the following assay was preformed. A partial receptor preparation was prepared from bovine striatal membranes using [^3 H] spiperone as the ligand at a final concentration of 0.3 nM. To determine non-specific binding cold spiperone was tested at 1 μM. The reactions were carried out in 50 mM Tris-HCl (pH 7.7) containing 120 mM NaCl, 5 mM KCl, 2 mM CaCl2 and 1 mM MgCl2 at 37° C. for 60 minutes. […] The inhibitory properties of the substances for binding of ligand to the adenosine receptor (ADNS) was measured using a partially purified receptor preparation made from bovine striatal membranes. The radioligand used was [^3 H] 5'-N-ethylcarboxyamidoadenosine (NECA) at a final ligand concentration of 4 nM. Non-specific binding was determined in the presence of 10 μM NECA. The reactions were carried out in 50 mM Tris-HCL (pH 7.7) for 60 minutes at 25° C. […] To measure the inhibitory activity of the substances for the opiate receptor (Opiate) receptor was partially purified from rat forebrains. [^3 H] naloxone at 1 nM as the ligand used. Non-specific binding was determined in the presence of 1 μM of naloxone. The assays were carried out in 50 mM Tris-HCl (pH 7.4) at 25° C. for 90 minutes. […] The neuronal nicotinic receptor (Nicotinic Neuronal) was assayed using receptors partially purified from rat cortical membranes. The radioligand used was [^3 H] N-methylcarbamylcholine iodide at a final ligand concentration of 5 nM. Non-specific binding was determined in the presence of 1 μM nicotine sulfate. The assay reactions were carried out in 50 mM Tris-HCl (pH 7.4) containing 120 mM NaCl, 5 mM KCl, 2 mM CaCl2, 1 mM MgCl2, and 3 μM atropine sulfate at 4° C. for 60 minutes. […] To determine how the substances inhibit the corticotropin releasing factor (CRF) partially purified receptor from rat cortical membranes was used as the receptor preparation. […] Tyr-° CRF at a final ligand concentration of 0.1 nM. Non-specific binding was determined in the presence of 1 μM Tyr-° CRF. The reactions were carried out in 50 mM HEPES containing 10 mM MgCl2, 2 mM EGTA, 0.12 TIU/ml aprotinin and 0.3% BSA at 25° C. for 120 minutes. The reaction is terminated by centrifugation in a Sorvall centrifuge for 15 minutes at 4° C.

MAOA = target: T2, MAOA (Rattus norvegicus, UniProt P21396); experiment: MAOA enzymatic activity, rat liver mitochondrial membranes, [14C] serotonin; type: biochemical; set-up: using rat liver mitochondrial membranes as a partially purified enzyme source; from tissue; host or cells: rat liver mitochondrial membranes
T2 sequence (P21396 1-526): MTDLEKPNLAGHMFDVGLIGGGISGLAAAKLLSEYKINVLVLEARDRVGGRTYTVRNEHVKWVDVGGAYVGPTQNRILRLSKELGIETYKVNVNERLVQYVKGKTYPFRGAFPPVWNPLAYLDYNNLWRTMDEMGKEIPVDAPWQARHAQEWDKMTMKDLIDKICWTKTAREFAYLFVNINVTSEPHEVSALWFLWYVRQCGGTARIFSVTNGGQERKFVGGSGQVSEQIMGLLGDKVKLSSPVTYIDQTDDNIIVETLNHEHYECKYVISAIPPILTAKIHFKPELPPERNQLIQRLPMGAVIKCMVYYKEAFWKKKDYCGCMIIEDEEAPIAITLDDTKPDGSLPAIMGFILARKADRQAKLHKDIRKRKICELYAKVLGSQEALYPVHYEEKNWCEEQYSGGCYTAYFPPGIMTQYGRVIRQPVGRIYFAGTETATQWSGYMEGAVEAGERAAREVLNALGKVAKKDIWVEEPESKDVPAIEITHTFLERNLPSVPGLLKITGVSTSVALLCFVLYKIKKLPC
Procedure: The inhibition of MAOA enzymatic activity (MAOA) was determined using rat liver mitochondrial membranes as a partially purified enzyme source. […] The reaction involves the conversion of the substrate to [^14 C] 5-hydroxyl indoleacetaldehyde+NH4^+. In brief, the enzyme is preincubated with the substances and the subtype specific blocker deprenyl (at 300 nM) for 60 minutes at 37° C. in 100 mM KPO4 (pH 7.2). Substrate is added and incubated for an additional 10 minutes. The reaction is terminated by the addition of 0.5 ml of 2M citric acid. […] Nitric oxide synthetase activity was measured using a binding assay (NOS). The receptors were made by partial purification of material from rat brain membranes. The radioligand used was [^3 H] L-N^G -Nitro-Arginine (NOARG) at a final concentration of 5 nM. Non-specific binding was determined using 100 μM of NOARG. The assay reactions were carried out in 50 mM Tris-HCl (pH 7.4) for 60 minutes at 25° C.

monoamine oxidase B [5] = experiment: MAO-B enzyme activity, rat liver mitochondrial fraction, [3H]dopamine; type: biochemical; conditions: read-out: MAOB (concentration)
Procedure: MAO-B enzyme activity is assayed in a mitochondrial fraction isolated from rat liver by differential centrifugation. […] Following 20 minutes incubation at 37° C., the reaction is terminated by the addition of 5% HCl. The radioactivity of [^3 H]dopamine in an extraction was determined.

serotonin transporter [6] = target: T1, serotonin transporter; conditions: cited from earlier work
β-adrenergic receptors = conditions: rat frontal cortex, subchronic (250 mg/kg for 2 weeks; imipramine similar doses); cited from earlier work
[7] = target: glutamate receptor, NMDA agonist site; conditions: cited from earlier work
monoamine oxidase B [8] = conditions: reference compounds; read-out: inhibition of monoamine oxidase B IC50; cited from earlier work
bacteria, fungi = conditions: hyperforin, adhyperforin: dilutions of 1:400 or 1:200; cited from earlier work
[9] = oil preparations, exposed to light; cited from earlier work

Which results are given for `Cc1cc(O)c2c(=O)c3c(O)cc(O)c4c5c(O)cc(O)c6c(=O)c7c(O)cc(CO)c8c1c2c(c34)c(c65)c78` [pseudohypericin]?
inhibition of HIV-1 [1]: inhibit; activity against equine infectious anemia virus [2]: Activity has also been reported; activity against murine cytomegalovirus (murine cytomegalovirus): Activity has also been reported; inhibition of herpes simplex (herpes simplex): inhibit; activity against Sindbis virus (Sindbis virus): Activity has also been reported; stability in solution (stability): unstable in solution; protein kinase C IC50 (protein kinase C): 15 µg/mL

For `NCc1cc(=O)[nH]o1` [Muscimol], which Ki (GABAA receptor) is on record?
The Ki was 4.4 nM.

With `c1cc2c(cc1C1CCCCC1)c1c3n2CCNC3CCC1` (stereo not shown) [Tetrindole Mesylate] as the molecule, how does the IC50 (Monoamine Oxidase A) read?
Its IC50 is 46 nM.

What does the source list for `O=c1c(O)c(-c2ccc(O)c(O)c2)oc2cc(O)cc(O)c12` [Quercetin, quercetin]?
5-HT Reuptake (Table 8, words) (serotonin transporter [3]): Negative; M1 Central [4]: 27%; ADNS (adenosine receptor): 45% and 27%; MAOA (Table 8, words) (MAOA): verified the MAOA activity; IC50 (MAOA; read-out: MAOA (concentration)): 8200 nM; IC50 (monoamine oxidase B [5]): 2400 nM

For `c1ccc2nc(N3CCNCC3)ccc2c1` [Quipazine maleate], which nH (serotonin transporter [6]; Reference Data) is on record?
Its nH is 0.8550.

Which “down-regulation of β-adrenergic receptors” value (β-adrenergic receptors) does the source give for `CN(C)CCCN1c2ccccc2CCc2ccccc21` [imipramine] here?
The value was 25%.

For `CC(C)OC(=O)[C@H]1[C@@H](c2ccc([125I])cc2)C[C@@H]2CC[C@H]1N2C` [[^125 I]-RTI-121], which Kd (serotonin transporter [6]; radioligand) is on record?
The Kd was 1.1 nM.

Which Ki ([7]; read-out: Ki(nM) NMDA reference compounds) does the source give for `CN[C@H](CC(=O)O)C(=O)O` [NMDA, N-methyl-D-aspartic acid] here?
The Ki was 9300 nM.

For `CCCC(=CC(N)C(=O)O)CP(=O)(O)O` (stereo not shown) [[^3 H]-CGP 39653], which Kd ([7]; radioligand, read-out: KD (binding affinity)) is on record?
The Kd was 7 nM.

With `O=c1[nH]oc2c1CCNC2` [THIP, 4,5,6,7Tetrahydroisoxazolo[5,4c]pyridin3(2H)one] as the molecule, how does the Ki (GABAA receptor) read?
Its Ki is 25.1 nM.

With `Cc1ccc2c(c1)c1c3n2CCNC3CCC1` (stereo not shown) [Pirlindole Mesylate] as the molecule, how does the IC50 (Monoamine Oxidase A) read?
Its IC50 is 16 nM.

Which IC50 (monoamine oxidase B [8]) does the source give for `NCCNC(=O)c1cccc(I)c1` [N-(2-aminoethyl)-3-iodobenzamide hydrochloride] here?
The IC50 was 1700 nM.

For `CC(C)=CCCC1(C)C(CC=C(C)C)CC2(CC=C(C)C)C(=O)C(CC=C(C)C)=C(O)C1(C(=O)C(C)C)C2=O` (stereo not shown) [Hyperforin, hyperforin], which “antibacterial / antifungal / antibiotic effect” value (bacteria, fungi) is on record?
The value was “antibiotic effect greater than that of sulfonilamide”.

What about the degradation time [9] of the same molecule?
The degradation time was 14 days.

What does the source list for `O=[N+]([O-])c1ccc2nc(N3CCNCC3)ccc2c1` [6-NO-Quipazine]?
IC50 (serotonin transporter [6]; Reference Data): 3400 nM; nH (serotonin transporter [6]; Reference Data): 0.7400

For `O=c1c2cc(O)c(O)cc2oc2cc(O)c([C@@H]3O[C@H](CO)[C@@H](O)[C@H](O)[C@H]3O)c(O)c12` [Magniferin, mangiferin], which “5-HT Reuptake (Table 8, words)” value (serotonin transporter [3]) is on record?
The value was “Negative”.

For `O=c1c(O[C@@H]2O[C@H](CO)[C@H](O)[C@H](O)[C@H]2O)c(-c2ccc(O)c(O)c2)oc2cc(O)cc(O)c12` [Hyperoside, hyperoside], which “5-HT Reuptake (Table 8, words)” value (serotonin transporter [3]) is on record?
Its value is “Negative”.

With `O=C(O)C1=CCNCC1` [Isoguvacine] as the molecule, how does the Ki (GABAA receptor) read?
Its Ki is 9.5 nM.

Which “5-HT Reuptake (Table 8, words)” value (serotonin transporter [3]) does the source give for `C[C@@H]1O[C@@H](OC[C@H]2O[C@@H](Oc3c(-c4ccc(O)c(O)c4)oc4cc(O)cc(O)c4c3=O)[C@H](O)[C@@H](O)[C@@H]2O)[C@H](O)[C@H](O)[C@H]1O` [Rutin, rutin] here?
The value was “Negativee”.

With `CCC(C)C(=O)[C@]12C(=O)[C@](CC=C(C)C)(C[C@H](CC=C(C)C)[C@@]1(C)CCC=C(C)C)C(=O)C(CC=C(C)C)=C2O` (stereo partly shown) [Adhyperforin, adhyperforin] as the molecule, how does the degradation time [9] read?
The degradation time was 14 days.

With `C[C@@H]1O[C@@H](Oc2c(-c3ccc(O)c(O)c3)oc3cc(O)cc(O)c3c2=O)[C@H](O)[C@H](O)[C@H]1O` [Quercitrin, quercitrin] as the molecule, how does the “5-HT Reuptake (Table 8, words)” value (serotonin transporter [3]) read?
The value was “Negative”.

And the inhibition at 100 µM (serotonin transporter [3]; 10^-4, read-out: Sero)?
Its inhibition at 100 µM is 39%.

And the inhibition at 100 µM (serotonin transporter [3]; 10^-4 M, read-out: Sero % inhibition (PharmaPrint range))?
Its inhibition at 100 µM is 40 ± 20%.

And the ADNS (adenosine receptor)?
The ADNS was 45%.

And the “AD,NS % inhibition (PharmaPrint range)” value (adenosine receptor; 10^-4 M)?
The value was 45 ± 20%.
